The values that follow come from patent US20260373248A1, “DEGRADABLE PEPTOIDS” (Medici Therapeutics, Inc., priority 2023, published 2026).

Non-standard residues stand in square brackets, D forms with d. Residues, ends and D or L forms follow the SMILES beside them. *: point of attachment. Gly(N-(3-decanoyloxypropyl)) = CCCCCCCCCC(=O)OCCCNCC(=O)O; N(2-decanoyloxyethyl)Gly = CCCCCCCCCC(=O)OCCNCC(=O)O; Gly(N-3-morpholinopropyl) = O=C(O)CNCCCN1CCOCC1; N(2-ethylhexyl)Gly = CCCCC(CC)CNCC(=O)O; N(CH(CH2OH)2)Gly = O=C(O)CNC(CO)CO; NDecylGly = CCCCCCCCCCNCC(=O)O; For = O=C*

The test system of one data set is firefly luciferase. The data set is described as follows: In vivo firefly luciferase expression after intravenous injection of fLuc mRNA delivery vehicles (IVIS imaging). The arrangement: species or system female Balb/c mice. As to conditions: for Total Flux (luciferase expression): fLuc mRNA, intravenous, Balb/c mice; for Total Flux: mice, 2.5 ug fLuc mRNA intravenously, 6 hours post-injection. Put shortly: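 Female Balb/c mice (6-8 weeks) given 2.5 ug fLuc mRNA in Nutshells IV. At 6 hours, IP D-luciferin (30 mg/mL, 10 μL/g) under isoflurane; IVIS imaging 10 minutes later, then harvested organs imaged ex vivo. Read-out: total photon flux in regions of interest.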

In the next data set the test system is luciferase. The data set is described as follows: Luciferase expression after local (intramuscular or subcutaneous) administration of mRNA. It is filed as in vivo. As to conditions: mRNA 0.01 mpk, 6 hours; for IM Flux: intramuscular; for SC Flux: subcutaneous. Put shortly:
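Female Balb/c mice (6-8 weeks) received fLuc mRNA in aminolipidated peptoid Nutshells at 0.01 mpk subcutaneously or intramuscularly, or 0.1 mpk intratumorally. At 6 hours, anesthetized mice were given D-luciferin IP and imaged 10 minutes later; harvested organs were also imaged and total photon flux quantified in regions of interest.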

Another data set deals with mRNA. The experiment in a line: mRNA encapsulation (modified Quant-iT RiboGreen assay). It is filed as physicochemical. As to conditions: for mean percent encapsulation of RNA: RiboGreen, without vs with Triton X-100; for % Encapsulation: mRNA. In short, it runs like this:
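Peptoid nanoparticles were incubated with Triton X-100 for 10 min to release entrapped mRNA, then mixed with RiboGreen reagent and read by fluorescence (ex 485 nm/em 530 nm). Percent encapsulation was derived from the ratio of fluorescence without versus with Triton X-100.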

A short description of data set [1]: Peptoid quantity remaining in liver by HPLC-TOF mass spectrometry. The format is in vivo. As to conditions: liver homogenate. Here is the method:
Peptoid quantity in liver was determined via high-performance liquid chromatography coupled with time-of-flight mass spectrometer (HPLC-TOF). The entire liver was weighed, and then two sections were isolated using a provided biopsy punch for liver homogenization. Liver homogenate sample was prepared by resuspending 20 mg liver tissue in 400 μL extraction solvent (IPA/MeOH=8/2) containing an internal standard (400 pg/μL) followed by bead homogenization (45 sec per cycle for 3-4 cycles). Homogenized samples were centrifuged at 12,000 rpm for 8 min at 6 °C. The resulting supernatant was collected and stored at −20 °C for further LC analysis. 5 μL of the resulting supernatant sample from solid or liquid tissue was injected into a BEH C8 column on an Agilent 1290 Infinity II liquid chromatograph coupled with an Agilent 6230 LC-TOF system. Concentrations of peptoids were determined by a linear calibration curve (linear range:0.2-50 μg/g for solid tissue). Standard calibration curve solutions were prepared by spiking untreated liver followed by homogenization and centrifugation.

The nature of data set [2]: Delivery vehicle size and polydispersity by dynamic light scattering. The format is physicochemical. Put shortly:
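LNPs made by microfluidic mixing of ethanolic peptoid/DSPC/cholesterol/DMG-PEG2000 (20:1.79:7.16:1.84 by weight) with mRNA in 10 mM citrate pH 5.0 at 1:3 by volume, then dialyzed overnight at 4 °C against tris-sucrose pH 7.4. Size and PDI read by dynamic light scattering in PBS.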

The test system of a further data set is hEPO. The data set is described as follows: Quantification of hEPO in serum after IV injection of mRNA (Human EPO ELISA). It is filed as in vivo. As to conditions: Balb/c mice, 2.5 μg mRNA IV, serum after 6 hours. In short, it runs like this:
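Balb/c mice received 2.5 μg mRNA encoding human EPO by IV injection; serum was collected after 6 hours. hEPO was measured by sandwich ELISA (biotin-conjugate, streptavidin-HRP, TMB, A450) against kit standards (mIU/mL) and an external standard (ng/mL), with values interpolated and corrected for dilution.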

The mark [3] stands for this setting: DLS in PBS, peptoid:DSPC:Cholesterol:DMG-PEG2000 weight ratio 20:1.79:7.16:1.84, mRNA.

On to `CCCCCCCCCC(=O)OCCCN(CC(=O)N(CC(=O)N(CC(=O)N(CCCOC(=O)CCCCCCCCC)CC(=O)N(CC(N)=O)CC(CC)CCCC)CC(CC)CCCC)CC(CC)CCCC)C(=O)CN(CC(CC)CCCC)C(=O)CNC(CO)CO` (stereo not shown) [Compound 5] (H-[N(CH(CH2OH)2)Gly][N(2-ethylhexyl)Gly][Gly(N-(3-decanoyloxypropyl))][N(2-ethylhexyl)Gly][N(2-ethylhexyl)Gly][Gly(N-(3-decanoyloxypropyl))][N(2-ethylhexyl)Gly]-NH2), for which the “Total Flux (luciferase expression)” value in the data set with firefly luciferase (formulation recipe D22) worked out at 1.77E+09 p/s; in the data set on firefly luciferase (formulation recipe O3), 3.25E+09 p/s; in the data set on firefly luciferase (formulation recipe O7), 1.93E+09 p/s. The “Total Flux” value in the data set on firefly luciferase was 1.77E+09 p/s. Besides, the “IM Flux” value with luciferase was 1.62E+08 p/s. Besides, the “SC Flux” value in the data set with luciferase was found to be 1.71E+08 p/s. In addition, the “mean percent encapsulation of RNA” value in the data set with mRNA was 84.8%. In addition, the “% Encapsulation” value in the data set with mRNA (formulation recipe D22) stood at 84.8%; in the data set on mRNA (formulation recipe O3), 82.2%; in the data set on mRNA (formulation recipe O7), 93.5%. Besides, in data set [1], the “% of injected dose remaining in liver” value worked out at 14.71%. Also, in data set [2] (setting [3]), the PDI was 0.076. The “Particle Size” value turned out to be 86.2 nm in data set [2] (setting [3]), 86.2 nm in data set [2] (formulation recipe D22), 81.6 nm in data set [2] (formulation recipe O3) and 51.7 nm in data set [2] (formulation recipe O7). Moreover, the hEPO in the data set on hEPO came out at 278 ng/mL.
`CCCCCCCCCC(=O)OCCCN(CC(=O)N(CC(=O)N(CC(=O)N(CCCOC(=O)CCCCCCCCC)CC(=O)N(CC(N)=O)CC(CC)CCCC)CC(CC)CCCC)CC(CC)CCCC)C(=O)CN(CC(CC)CCCC)C(=O)CN(C=O)CCCN1CCOCC1` (stereo not shown) [Compound 106] (For-[Gly(N-3-morpholinopropyl)][N(2-ethylhexyl)Gly][Gly(N-(3-decanoyloxypropyl))][N(2-ethylhexyl)Gly][N(2-ethylhexyl)Gly][Gly(N-(3-decanoyloxypropyl))][N(2-ethylhexyl)Gly]-NH2): in the data set with firefly luciferase, the “Total Flux” value came to 6.71E+09 p/s. For the same compound, in the data set with luciferase, the “IM Flux” value is 1.07E+08 p/s and the “SC Flux” value worked out at 1.70E+08 p/s. For the same compound, in the data set on mRNA, the “mean percent encapsulation of RNA” value came to 80.0%. The “% of injected dose remaining in liver” value in data set [1] was 5.86%. Further, in data set [2] (setting [3]), the PDI is listed as 0.155 and the “Particle Size” value is reported as 91.5 nm. Also, in the data set with hEPO, the hEPO amounted to 471 ng/mL.
As to `CCCCCCCCCCN(CC(=O)N(CC(=O)N(CCCOC(=O)CCCCCCCCC)CC(N)=O)CC(CC)CCCC)C(=O)CN(CC(CC)CCCC)C(=O)CN(CCCOC(=O)CCCCCCCCC)C(=O)CN(CC(CC)CCCC)C(=O)CNC(CO)CO` (stereo not shown) [Compound 58] (H-[N(CH(CH2OH)2)Gly][N(2-ethylhexyl)Gly][Gly(N-(3-decanoyloxypropyl))][N(2-ethylhexyl)Gly][NDecylGly][N(2-ethylhexyl)Gly][Gly(N-(3-decanoyloxypropyl))]-NH2), the “Total Flux (luciferase expression)” value in the data set on firefly luciferase (formulation recipe D22) stood at 3.94E+09 p/s; in the data set on firefly luciferase (formulation recipe O5) it was 5.84E+08 p/s; in the data set with firefly luciferase (formulation recipe O8), 1.02E+09 p/s. Also, the “Total Flux” value in the data set on firefly luciferase is recorded as 3.94E+09 p/s. For the same compound, the “IM Flux” value with luciferase was found to be 5.53E+08 p/s. The “SC Flux” value with luciferase worked out at 1.99E+07 p/s. Also, the “mean percent encapsulation of RNA” value in the data set on mRNA was found to be 78.1%. Further, the results for the “% Encapsulation” value with mRNA (formulation recipe D22), in the data set with mRNA (formulation recipe O5) and in the data set on mRNA (formulation recipe O8) were 78.1%, 92.8% and 92.9%, respectively. Also, the “% of injected dose remaining in liver” value in data set [1] is recorded as −1.37%. For the same compound, the PDI in data set [2] (setting [3]) was determined as 0.159. The “Particle Size” value is 70.4 nm in data set [2] (setting [3]), 70.4 nm in data set [2] (formulation recipe D22), 56.3 nm in data set [2] (formulation recipe O5) and 57.5 nm in data set [2] (formulation recipe O8). Besides, the hEPO in the data set on hEPO was determined as 386 ng/mL.
As for `CCCCCCCCCC(=O)OCCCN(CC(N)=O)C(=O)CN(CC(CC)CCCC)C(=O)CN(CCCOC(=O)CCCCCCCCC)C(=O)CN(CCCOC(=O)CCCCCCCCC)C(=O)CN(CC(CC)CCCC)C(=O)CN(CCCOC(=O)CCCCCCCCC)C(=O)CNC(CO)CO` (stereo not shown) [Compound 53] (H-[N(CH(CH2OH)2)Gly][Gly(N-(3-decanoyloxypropyl))][N(2-ethylhexyl)Gly][Gly(N-(3-decanoyloxypropyl))][Gly(N-(3-decanoyloxypropyl))][N(2-ethylhexyl)Gly][Gly(N-(3-decanoyloxypropyl))]-NH2), the “Total Flux” value with firefly luciferase was 4.46E+08 p/s. In the data set with luciferase, the “IM Flux” value came to 5.34E+08 p/s and the “SC Flux” value is listed as 2.78E+08 p/s. For the same compound, the “mean percent encapsulation of RNA” value with mRNA was found to be 36.0%. Moreover, the “% of injected dose remaining in liver” value in data set [1] stood at 0.13%. Moreover, in data set [2] (setting [3]), the PDI was 0.153 and the “Particle Size” value was 88.5 nm. The hEPO in the data set on hEPO came out at 71.6 ng/mL.
In the case of `CCCCCCCCCC(=O)OCCN(CC(=O)N(CCOC(=O)CCCCCCCCC)CC(=O)N(CC(=O)N(CCOC(=O)CCCCCCCCC)CC(=O)N(CCOC(=O)CCCCCCCCC)CC(=O)N(CC(N)=O)CC(CC)CCCC)CC(CC)CCCC)C(=O)CN(C=O)CCCN1CCOCC1` (stereo not shown) [Compound 76] (For-[Gly(N-3-morpholinopropyl)][N(2-decanoyloxyethyl)Gly][N(2-decanoyloxyethyl)Gly][N(2-ethylhexyl)Gly][N(2-decanoyloxyethyl)Gly][N(2-decanoyloxyethyl)Gly][N(2-ethylhexyl)Gly]-NH2), the “Total Flux (luciferase expression)” value in the data set on firefly luciferase (formulation recipe D22) was 5.54E+09 p/s; with firefly luciferase (formulation recipe R1), 5.94E+08 p/s; in the data set with firefly luciferase (formulation recipe R5), 1.00E+09 p/s; in the data set on firefly luciferase (formulation recipe R6) it was 2.28E+09 p/s; in the data set on firefly luciferase (formulation recipe R7), 4.00E+09 p/s. The “Total Flux” value in the data set on firefly luciferase was 5.54E+09 p/s. Also, the “IM Flux” value in the data set with luciferase is listed as 1.70E+08 p/s. The “SC Flux” value in the data set with luciferase came to 8.95E+07 p/s. Moreover, the “mean percent encapsulation of RNA” value with mRNA was found to be 56.4%. Besides, the “% Encapsulation” value in the data set on mRNA (formulation recipe D22) came to 56.4%; in the data set on mRNA (formulation recipe R1) it was 82.7%; in the data set with mRNA (formulation recipe R5), 88.1%; in the data set on mRNA (formulation recipe R6), 87.6%; with mRNA (formulation recipe R7) it was 79.9%. Moreover, in data set [1], the “% of injected dose remaining in liver” value came out at 7.34%. In addition, the PDI in data set [2] (setting [3]) was 0.095. In addition, the “Particle Size” value in data set [2] (setting [3]) turned out to be 75.4 nm; in data set [2] (formulation recipe D22), 75.4 nm; in data set [2] (formulation recipe R1) it was 66.0 nm; in data set [2] (formulation recipe R5) it was 67.2 nm; in data set [2] (formulation recipe R6), 74.4 nm; in data set [2] (formulation recipe R7), 75.3 nm. Further, the hEPO in the data set with hEPO is 2140 ng/mL.
